Measurements reported in patent US20240025871A1, “METHODS AND SYSTEMS FOR PRODUCTION OF FURFURAL” (SHELL OIL COMPANY, priority 2020, published 2024).
Several values for one entry are separate records, joined by “and”; a condition that tells them apart may be missing. Equal values may be shown once. Read-outs that look alike come from different tables or passages of the source.

Experiments:
[1] = cited from earlier work
[2] = Partition of components between water+sulfolane phase and methylnaphthalene phase after dehydration reaction; format: physicochemical; settings: room temperature; for [Conc]water+S: concentration in aqueous (water+sulfolane) phase; for [conc]MN: concentration in methylnaphthalene phase; for wt. %water+S: content in aqueous (water+sulfolane) phase; for wt. %MN: content in methylnaphthalene phase; for Pmol: ratio of absolute amounts polar/apolar phase, polar phase volume twice the apolar
[3] = octanol-water; water-soluble solvents, Table 3; cited from earlier work
[4] = water-insoluble solvents, Table 2
[5] = water-insoluble boronic acids, Table 1

In the case of `Cc1cccc2ccccc12` [1-methylnaphtalene], the “Water solubility g/L (20° C.)” value [1, 4] is listed as 0.026 g/L, the “[Conc]water+S” value [2] is listed as 3 mM and the “[conc]MN” value [2] is listed as 7,000 mM. For the same molecule, the “wt. %water+S” value ([2]; listed as 1-MN) was 0.04 wt. %, the “wt. %water+S” value ([2]; listed as MN) was under 0.1 wt. % and the “wt. %MN” value [2] was 91 wt. %. It also gave a Pmol [2] of 0.0009.

In the case of `CCCCc1ccc(B(O)O)cc1` [4-butylphenyl boronic acid], the “Water solubility g/L (20° C.)” value [1, 5] is given as “Insoluble”.

For `CC(C)(C)c1ccc(B(O)O)cc1` [4-tert-Butylphenyl boronic acid], the “Water solubility g/L (20° C.)” value [1, 5] is listed as “Insoluble”.

In the case of `CCc1ccc(O)cc1` [4Et-phenol], the “Water solubility g/L (20° C.)” value [1, 4] is given as 6.1 g/L.

For `c1ccc2occc2c1` [Benzofuran], the “Water solubility g/L (20° C.)” value [1, 4] is listed as “insoluble”.

For `COCCOCCOC` [Diglyme], the LogP [3] is given as −0.8.

For `O=Cc1ccco1` [Furfural], the “[Conc]water+S” value [2] was 103 mM, the “[conc]MN” value [2] was 144 mM and the “wt. %water+S” value [2] was 0.88 wt. %. For the same molecule, the “wt. %water+S” value ([2]; listed as furfural) was under 1 wt. %, the “wt. %MN” value [2] was 1.3 wt. % and the Pmol [2] was 1.43. For the same molecule, the “share of overall furfural produced contained in non-aqueous MN-rich phase” value [2] was 41%.

For `O=C1CCCO1` [gamma butyrolactone], the LogP [3] is given as −0.76.

For `CC1CCC(=O)O1` (centres unmarked) [gamma valerolactone], the LogP [3] is listed as −0.27.

For `CN1CCCC1=O` [nMe-pyrrolidone], the LogP [3] is given as −0.4.

For `Cc1ccccc1B(O)O` [o-tolylboronic acid], the “Water solubility g/L (20° C.)” value [1, 5] is listed as “Slightly”.

For `CCCCCCCCB(O)O` [octylboronic acid], the “Water solubility g/L (20° C.)” value [1, 5] is given as “Insoluble” and the “water solubility (in words)” value [1] is given as “water-insoluble”.

With `OB(O)c1ccccc1` [phenylboronic acid] the “[Conc]water+S” value [2] was 125 mM, the “[conc]MN” value [2] was 340 mM and the “wt. %water+S” value ([2]; listed as PBA) was < 1.3 wt. % and 1.3 wt. %. The “wt. %MN” value [2] was 3.7 wt. % and the Pmol [2] was 0.74.

With `O=S1(=O)CCCC1` [sulfolane] the “[Conc]water+S” value [2] was 5,100 mM, the “[conc]MN” value [2] was 370 mM and the “wt. %water+S” value [2] was 54 wt. %. For the same molecule, the “wt. %MN” value [2] was 4 wt. %, the “wt. %MN” value ([2]; listed as Sulfolane) was 4.0 wt. % and the Pmol [2] was 13.8.

In the case of `O` [water], the “[Conc]water+S” value [2] is reported as 27,600 mM, the “[conc]MN” value [2] is reported as 92 mM and the “wt. %water+S” value [2] is reported as 44 wt. %. The “wt. %MN” value [2] was 0.15 wt. % and the Pmol [2] was 601.
